In patent US20230057602A1, “METHODS OF TREATMENT WITH ANTIBODIES AGAINST BCMA AND CD3” (BRISTOL-MYERS SQUIBB COMPANY, priority 2019, published 2023):

Assays:
Assay type in all cases: cell-based, human
[1] = test system: H929 BCMA-expressing myeloma cell line co-cultured with T-cells; experiment: CC-93269-induced cytokine secretion, T-cell co-culture with H929; settings: 1 μM DEX vs DMSO control, highest concentration of CC-93269, 72 hours, 3 donors
[2] = test system: MM1S BCMA-expressing myeloma cell line co-cultured with T-cells; experiment: CC-93269-induced cytokine secretion, T-cell co-culture with MM1S; settings: 1 μM DEX vs DMSO control, highest concentration of CC-93269, 72 hours, 3 donors
[3] = test system: SKMM2 BCMA-expressing myeloma cell line co-cultured with T-cells; experiment: CC-93269-induced cytokine secretion, T-cell co-culture with SKMM2; settings: 1 μM DEX vs DMSO control, highest concentration of CC-93269, 72 hours, 3 donors
[4] = test system: KMS12-PE BCMA-expressing myeloma cell line co-cultured with T-cells; experiment: CC-93269-induced cytokine secretion, T-cell co-culture with KMS12-PE; settings: 1 μM DEX vs DMSO control, highest concentration of CC-93269, 72 hours, 3 donors
[5] = test system: BCMA-expressing tumour cell lines co-cultured with T-cells; experiment: CC-93269-mediated cytokine release across the four co-cultures; settings: 1 μM DEX vs DMSO control, highest concentration of CC-93269
[6] = test system: BCMA+ tumour cell lines; experiment: CC-93269-induced redirected lysis of BCMA+ tumour cell lines (overall); settings: co-treatment with CC-93269
Experimental: The cocultures were incubated at 37° C. with 5% CO2. After 72 hours of incubation, culture supernatants were harvested and stored at −80° C. The cells were labeled with Live/Dead Fixable Aqua Dead Cell Stain, according to the manufacturer's instructions for 30 minutes at RT. Subsequently, cells were stained with antibodies against the following cell surface markers: CD2, CD3, CD4, CD8, CD69, CD25, HLA-DR, and CD154 in a final volume of 50 μL of flow staining buffer. After staining for cell surface molecules, the cells were washed once with 150 μL flow staining buffer, resuspended in 50 μL of BD Cytofix fixation buffer, and incubated for 30 minutes at RT. Cells were washed with 150 μL of flow staining buffer and resuspended in a final volume of 50 μL of flow staining buffer for analysis on an IQUE Screener plus instrument (Intellicyt, Albuquerque, N. Mex.). […] The IC50 values were calculated using non-linear regression analysis, sigmoidal dose-response using GraphPad Prism (version 5.0) software.

C[C@@H]1C[C@H]2[C@@H]3CCC4=CC(=O)C=C[C@]4(C)[C@@]3(F)[C@@H](O)C[C@]2(C)[C@@]1(O)C(=O)CO [Dexamethasone, dexamethasone]
% Reduction of CC-93269-induced IL-2 secretion, Mean [1]: 74.1% | % Reduction of CC-93269-induced TNF-α secretion, Mean [1]: 61.8% | % Reduction of CC-93269-induced IL-2 secretion, Mean [2]: 57.6% | % Reduction of CC-93269-induced TNF-α secretion, Mean [2]: 50.3% | % Reduction of CC-93269-induced IL-2 secretion, Mean [3]: 56.5% | % Reduction of CC-93269-induced TNF-α secretion, Mean [3]: 46.3% | % Reduction of CC-93269-induced IL-2 secretion, Mean [4]: 48.3% | % Reduction of CC-93269-induced TNF-α secretion, Mean [4]: 53.9% | lowering of CC-93269-mediated release of IL-2 [5]: 48.3-74.1% | lowering of CC-93269-mediated release of TNF-α [5]: 46.3-61.8% | effect of dexamethasone on CC-93269-induced redirected lysis / cytotoxic activity [6]: minimally affected | effect of dexamethasone on CC-93269-induced redirected lysis / cytotoxic activity ([6]; listed as dexamethasone): minimal suppressive impact
